In the assay the target is T1, Rhesus PDE2A3 (Macaca mulatta, UniProt B3VTJ2).
T1 construct: made in house; host or cells: AD293 cells, transient transfection, pcDNA3.3-TOPO; lysate supernatant used as enzyme
T1 sequence (B3VTJ2 1-941): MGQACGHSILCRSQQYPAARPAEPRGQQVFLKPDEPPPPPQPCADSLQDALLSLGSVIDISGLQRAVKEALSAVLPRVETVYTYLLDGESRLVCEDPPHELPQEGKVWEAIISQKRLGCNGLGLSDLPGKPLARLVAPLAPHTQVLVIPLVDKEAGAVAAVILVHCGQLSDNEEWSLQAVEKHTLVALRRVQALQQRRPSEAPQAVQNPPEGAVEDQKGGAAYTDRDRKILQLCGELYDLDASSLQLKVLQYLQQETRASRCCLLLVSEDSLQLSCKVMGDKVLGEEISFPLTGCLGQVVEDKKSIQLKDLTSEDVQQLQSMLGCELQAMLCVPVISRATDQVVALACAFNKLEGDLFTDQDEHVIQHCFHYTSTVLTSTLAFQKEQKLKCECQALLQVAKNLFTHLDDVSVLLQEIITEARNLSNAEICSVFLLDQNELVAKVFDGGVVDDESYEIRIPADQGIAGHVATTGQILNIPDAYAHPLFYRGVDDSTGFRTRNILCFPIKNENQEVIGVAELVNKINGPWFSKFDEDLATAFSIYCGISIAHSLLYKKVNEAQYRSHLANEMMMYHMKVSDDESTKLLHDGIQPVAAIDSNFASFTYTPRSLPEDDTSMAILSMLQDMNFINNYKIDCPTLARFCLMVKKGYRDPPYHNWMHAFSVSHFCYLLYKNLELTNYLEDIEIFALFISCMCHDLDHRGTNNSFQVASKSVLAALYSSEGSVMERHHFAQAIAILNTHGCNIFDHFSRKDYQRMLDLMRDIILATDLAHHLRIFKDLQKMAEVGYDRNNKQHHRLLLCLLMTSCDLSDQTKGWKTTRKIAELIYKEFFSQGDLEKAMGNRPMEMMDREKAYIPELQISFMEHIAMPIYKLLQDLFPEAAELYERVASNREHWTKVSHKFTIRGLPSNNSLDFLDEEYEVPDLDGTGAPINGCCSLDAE
Briefly: PDE2 fluorescence polarization (IMAP FP) inhibition assay, rhesus enzyme. The assay is classed as biochemical, rhesus macaque. The method, boiled down:
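Lysate of AD293 cells transiently expressing rhesus PDE2A3, diluted for ~20% substrate conversion, with 50 nM FAM-cAMP and 1 uM cGMP activator in pH 7.2 Tris/MgCl2 buffer, 60 min at room temperature.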
On the technique in general: Polarisation of emitted light reports the rotation of a fluorescent probe.

Where [1] appears, read: Lab B, read-out: Rhesus PDE2 Ki (nM) Lab B.
Where [2] appears, read: Lab A, read-out: Rhesus PDE2 Ki (nM) Lab A.

Read-outs that look alike come from different tables or passages of the source.

Experimental findings from US10287269B2, “Pyrazolyl pyrimidinone compounds as PDE2 inhibitors” (Merck Sharp & Dohme Corp., priority 2015, dated 2019) are described below.

As usually defined, the Ki is a measure of affinity in units of concentration, obtained from inhibition or displacement. Turning to `COc1ccc(Cc2nc(-n3ccc(C(C)c4ccc(C(F)(F)F)cc4)n3)cc(=O)[nH]2)cc1OC` (single isomer, unassigned) [Example 133, (R)- or (S)-2-(3,4-dimethoxybenzyl)-6-(3-(1-(4-(trifluoromethyl)phenyl)ethyl)-1H-pyrazol-1-yl)pyrimidin-4(3H)-one], the Ki under setting [1] turned out to be 64.8 nM.
The same measure, in the same setting: for `Cc1nc(-c2cc([C@H](C)c3ccc(C(F)(F)F)cc3)[nH]n2)cc(=O)[nH]1` (single isomer, unassigned) [Example 24] the value was 154 nM.
For the compound `Cc1nc(-n2cc(C(C)c3ccc(C4(C)CC4)cc3)cn2)cc(=O)[nH]1` (centres unmarked) [Example 40, 2-methyl-6-(4-(1-(4-(1-methylcyclopropyl)phenyl)ethyl)-1H-pyrazol-1-yl)pyrimidin-4(3H)-one], the Ki under setting [1] came out at 211 nM.
On to `COc1ccc(Cc2nc(-c3cnn(C(C)c4ccc(S(F)(F)(F)(F)F)cc4)c3)cc(=O)[nH]2)cc1OC` (single isomer, unassigned) [Example 65, (S)- or (R)-2-(3,4-dimethoxybenzyl)-6-(1-(1-(4-(pentafluorosulfanyl)phenyl)ethyl)-1H-pyrazol-4-yl)pyrimidin-4(3H)-one 4(3H)-one], for which the Ki by setting is: under setting [2], 22 nM; under setting [1], 9.9 nM.
In the same order, the values of `COc1ccc(Cc2nc(-n3cc(C(C)c4ccc(C(F)(F)F)cc4)cn3)cc(=O)[nH]2)cc1OC` (centres unmarked) [Example 137, 2-(3,4-dimethoxybenzyl)-6-(4-(1-(4-(trifluoromethyl)phenyl)ethyl)-1H-pyrazol-1-yl)pyrimidin-4(3H)-one] are 1.3 nM and 0.6 nM.
Consider `Cc1nc(-c2cnn(C(C)c3ccc(C(F)(F)F)cc3)c2C)cc(=O)[nH]1` (single isomer, unassigned) [Example 81, (R)- or (S)-2-methyl-6-(5-methyl-1-(1-(4-(trifluoromethyl)phenyl)ethyl)-1H-pyrazol-4-yl)pyrimidin-4(3H)-one], for which the Ki under setting [1] came to 232 nM.
With `CCC(c1ccc(C(F)(F)F)cc1F)n1cc(-c2cc(=O)[nH]c(C)n2)cn1` (centres unmarked) [Example 33, 6-(1-(1-(2-fluoro-4-(trifluoromethyl)phenyl)propyl)-1H-pyrazol-4-yl)-2-methylpyrimidin-4(3H)-one], the Ki was 36.6 nM under setting [2] and 19.7 nM under setting [1].
Consider `Cc1nc(-c2cc([C@H](C)c3ccc(C(F)(F)F)cc3)[nH]n2)cc(=O)[nH]1` (single isomer, unassigned) [Example 23], for which the Ki under setting [1] amounted to 29.3 nM.
The same measure, in the same setting: for `Cc1nc(-n2cc([C@H](C)c3ccc(C(F)(F)F)cc3)cn2)cc(=O)[nH]1` (single isomer, unassigned) [Example 3] the value was 93 nM.
As to `Cc1ccc(C(C)n2cc(-c3cc(=O)[nH]c(C)n3)cn2)cc1` (centres unmarked) [Example 153, 2-methyl-6-(1-(1-(p-tolyl)ethyl)-1H-pyrazol-4-yl)pyrimidin-4(3H)-one], the Ki under setting [1] is 825 nM.
Turning to `CCc1nc(-c2cnn(C(C)c3ccc(C(F)(F)F)cc3F)c2)cc(=O)[nH]1` (centres unmarked) [Example 36, 2-ethyl-6-(1-(1-(2-fluoro-4-(trifluoromethyl)phenyl)ethyl)-1H-pyrazol-4-yl)pyrimidin-4(3H)-one], under setting [2], the Ki stood at 25.7 nM.
Take `COc1cc(C(F)(F)F)ccc1[C@@H](C)n1cc(-c2cc(=O)[nH]c(C)n2)cn1` (single isomer, unassigned) [Example 2]: the Ki by setting is: under setting [2], 43.9 nM; under setting [1], 35.3 nM.
`COc1ccc(Cc2nc(-n3ccc(C(C)c4ccc(C(F)(F)F)cc4)n3)cc(=O)[nH]2)cc1OC` (single isomer, unassigned) [Example 134, (R)- or (S)-2-(3,4-dimethoxybenzyl)-6-(3-(1-(4-(trifluoromethyl)phenyl)ethyl)-1H-pyrazol-1-yl)pyrimidin-4(3H)-one]: the Ki under setting [1] came out at 110 nM.
Turning to `Cc1nc(-n2cc([C@](C)(O)c3ccc(C(F)(F)F)cc3F)cn2)cc(=O)[nH]1` (single isomer, unassigned) [Example 16], under setting [1], the Ki stood at 75.8 nM.
The same measure, in the same setting: for `Cc1nc(-n2cc([C@H](CO)c3ccc(C(F)(F)F)cc3F)cn2)cc(=O)[nH]1` (single isomer, unassigned) [Example 19] the value was 105 nM.
Regarding `Cc1nc(-c2cnn(C(C)c3ccc(C4CC4)cc3C)c2)cc(=O)[nH]1` (single isomer, unassigned) [Example 94, (S)- or (R)-6-(1-(1-(4-cyclopropyl-2-methylphenyl)ethyl)-1H-pyrazol-4-yl)-2-methylpyrimidin-4(3H)-one], the Ki under setting [2] came out at 40.8 nM.
With `Cc1nc(-c2cnn(C(C)c3ccc(C(F)(F)F)cc3)c2C)cc(=O)[nH]1` (single isomer, unassigned) [Example 82, (S)- or (R)-2-methyl-6-(5-methyl-1-{(1R)-1-[4-(trifluoromethyl)phenyl]ethyl}-1H-pyrazol-4-yl)pyrimidin-4(3H)-one], under setting [1], the Ki came to 192 nM.
Still for that read-out and setting: for `Cc1nc(-c2cnn(C(C)c3ccc(S(F)(F)(F)(F)F)cc3)c2)cc(=O)[nH]1` (single isomer, unassigned) [Example 63, (S)- or (R)-2-methyl-6-(1-(1-(4-(pentafluorosulfanyl)phenyl)ethyl)-1H-pyrazol-4-yl)pyrimidin-4(3H)-one] the value was 99.3 nM.
For the compound `COc1ccc(Cc2nc(-c3cnn(C(C)c4ccc(C(F)(F)F)cc4F)c3)cc(=O)[nH]2)cc1F` (single isomer, unassigned) [Example 147, (S)- or (R)-6-(1-(1-(2-fluoro-4-(trifluoromethyl)phenyl)ethyl)-1H-pyrazol-4-yl)-2-(3-fluoro-4-methoxybenzyl)pyrimidin-4(3H)-one], the Ki under setting [2] turned out to be 3.6 nM.
As to `Cc1nc(-c2cnn(C(C)c3ccc(C4CC4)cc3F)c2)cc(=O)[nH]1` (single isomer, unassigned) [Example 91, (R)- or (S)-6-(1-(1-(4-cyclopropyl-2-fluorophenyl)ethyl)-1H-pyrazol-4-yl)-2-methylpyrimidin-4(3H)-one], under setting [2], the inhibitory constant (Ki) was 60 nM.
Turning to `Cc1nc(-c2cnn(C(C)c3ccc(S(F)(F)(F)(F)F)cc3)c2)cc(=O)[nH]1` (single isomer, unassigned) [Example 62, (R)- or (S)-2-methyl-6-(1-(1-(4-(pentafluorosulfanyl)phenyl)ethyl)-1H-pyrazol-4-yl)pyrimidin-4(3H)-one], the Ki under setting [1] is 143 nM.
As to `COc1ccc(Cc2nc(-c3cnn(C(C)c4ccc(C(F)(F)F)cc4F)c3)cc(=O)[nH]2)cc1` (single isomer, unassigned) [Example 138, (R)- or (S)-6-(1-(1-(2-fluoro-4-(trifluoromethyl)phenyl)ethyl)-1H-pyrazol-4-yl)-2-(4-methoxybenzyl)pyrimidin-4(3H)-one], the Ki under setting [2] was determined as 5.6 nM and the Ki under setting [1] was 1.6 nM.
On to `Cc1nc(-c2cnn(C(C)c3ccc(C(F)(F)F)cc3Cl)c2)cc(=O)[nH]1` (single isomer, unassigned) [Example 83, (R)- or (S)-6-(1-(1-(2-chloro-4-(trifluoromethyl)phenyl)ethyl)-1H-pyrazol-4-yl)-2-methylpyrimidin-4(3H)-one], for which the Ki under setting [2] was 6.2 nM.
For the compound `Cc1nc(-n2ccc([C@H](C)c3ccc(C(F)(F)F)cc3)n2)cc(=O)[nH]1` (single isomer, unassigned) [Example 5], the Ki under setting [1] turned out to be 285 nM.
